{"source": "patent US20190022072A1", "about": "“USAGE OF ACETAZOLAMIDE FOR TREATING ICH, PARTICULARLY HYPERGLYCEMIC ICH” (priority 2017, published 2019)", "key": {"experimental ICH": {"tested_on": "experimental ICH", "experiment": "hemorrhagic areas of brains of normoglycemic and hyperglycemic rats with experimental ICH treated with AZA", "type": "in vivo, Wistar rats", "procedure": "(§1) In the hyperglycemia experiment, six Wistar rats are applied. Regarding each rat, hyperglycemia is induced by a single intraperitoneal injection of a buffer solution of streptozotocin (STZ) in 31 mM citrate and 39 mM sodium phosphate at 70 mg/kg body weight after an overnight fast. On the other hand, control rats receive an intraperitoneal injection of buffer vehicle. On day 3 after STZ treatment, whole blood of the rats is obtained and the glucose levels thereof are measured. Blood glucose level of ≥250 mg/dL was chosen as hyperglycemia, whereas rats were used as normoglycemia, defined as a blood glucose level of <100 mg/dL.\n(§2) Then in the intracerebral hemorrhage experiment, each hyperglycemic or normoglycemic rat is anesthetized with an intraperitoneal injection of 50 mg/kg pentobarbital. Next, a needle is introduced through a burr hole into the striatum, and the needle is then removed, with the burr hole sealed with bone wax and the wound sutured. After a period of time, AZA is administered orally or by gastric lavage at 5 mg/kg in normal saline. Blood of the rats are sampled on days 1, 4, and 7 post-induction of ICH for testing the glucose level thereof.\nExperiment 2: comparing the hemorrhagic areas of normoglycemic and hyperglycemic rats treated with AZA."}, "AQP4": {"tested_on": "AQP4", "experiment": "expression of AQP4 in brain tissues of normoglycemic and hyperglycemic rats with experimental ICH, immunohistochemistry", "type": "in vivo, Wistar rats", "procedure": "as §1, §2\nExperiment 3: determining the expression of AQP4 in normoglycemic and hyperglycemic rats.\nThe differential expressions of AQP4 in normoglycemic and hyperglycemic rats are detected by AQP4 autoantibody by Immunohistochemistry. The effect of AZA influencing the expression of AQP4 are tested."}, "[1]": {"conditions": "hyperglycemic rats treated with AZA, day 1"}, "[2]": {"conditions": "hyperglycemic rats treated with AZA, day 4"}, "[3]": {"conditions": "hyperglycemic rats treated with AZA, day 7"}, "[4]": {"conditions": "normoglycemic rats treated with AZA, day 1"}, "[5]": {"conditions": "normoglycemic rats treated with AZA, day 4"}, "[6]": {"conditions": "normoglycemic rats treated with AZA, day 7"}}, "data": [{"compound": "CC(=O)Nc1nnc(S(N)(=O)=O)s1", "note": "[AZA, acetazolamide]", "values": [{"measurement": "hemorrhagic areas, change in words", "setting": "experimental ICH; both normoglycemic and hyperglycemic rats treated with AZA", "value": "significant decrease"}, {"measurement": "hemorrhagic areas square measure of rats (%)", "setting": "experimental ICH; [1]", "value": "2.08 ± 0.02", "unit": "%"}, {"measurement": "hemorrhagic areas square measure of rats (%)", "setting": "experimental ICH; [2]", "value": "0.91 ± 0.13", "unit": "%"}, {"measurement": "hemorrhagic areas square measure of rats (%)", "setting": "experimental ICH; [3]", "value": "0.38 ± 0.10", "unit": "%"}, {"measurement": "hemorrhagic areas square measure of rats (%)", "setting": "experimental ICH; [4]", "value": "6.00 ± 0.05", "unit": "%"}, {"measurement": "hemorrhagic areas square measure of rats (%)", "setting": "experimental ICH; [5]", "value": "2.61 ± 0.17", "unit": "%"}, {"measurement": "hemorrhagic areas square measure of rats (%)", "setting": "experimental ICH; [6]", "value": "1.37 ± 0.05", "unit": "%"}, {"measurement": "AQP4 expression, change in words", "setting": "AQP4; hyperglycemic rats administered with AZA (5 mg/kg)", "value": "significant decrease"}, {"measurement": "the expression of AQP4", "setting": "AQP4; [1]", "value": "15.67 ± 6.59"}, {"measurement": "the expression of AQP4", "setting": "AQP4; [2]", "value": "8.65 ± 4.53", "unit": "%"}, {"measurement": "the expression of AQP4", "setting": "AQP4; [3]", "value": "2.33 ± 3.83"}, {"measurement": "the expression of AQP4", "setting": "AQP4; [4]", "value": "12.19 ± 2.75"}, {"measurement": "the expression of AQP4", "setting": "AQP4; [5]", "value": "18.56 ± 5.67 ^"}, {"measurement": "the expression of AQP4", "setting": "AQP4; [6]", "value": "37.84 ± 6.53"}]}]}
